Reference: US20100256105A1, “NOVEL COMPOUNDS” (AstraZeneca R&D, priority 2009, published 2010)
pIC50: −log10 of the molar value.

The compounds below were run against T1, recombinant human GR (Homo sapiens, UniProt P04150) (assay: Human Glucocorticoid Receptor (GR) Assay, fluorescence polarization). Details: GS Red tracer, 2 hours at room temperature, 100% control 10 μM Dexamethasone, read-out: Inhibition of GR binding, IC50.
T1 construct: purchased Panvera/Invitrogen P2812 (kit P2893)
T1 sequence (P04150 1-777): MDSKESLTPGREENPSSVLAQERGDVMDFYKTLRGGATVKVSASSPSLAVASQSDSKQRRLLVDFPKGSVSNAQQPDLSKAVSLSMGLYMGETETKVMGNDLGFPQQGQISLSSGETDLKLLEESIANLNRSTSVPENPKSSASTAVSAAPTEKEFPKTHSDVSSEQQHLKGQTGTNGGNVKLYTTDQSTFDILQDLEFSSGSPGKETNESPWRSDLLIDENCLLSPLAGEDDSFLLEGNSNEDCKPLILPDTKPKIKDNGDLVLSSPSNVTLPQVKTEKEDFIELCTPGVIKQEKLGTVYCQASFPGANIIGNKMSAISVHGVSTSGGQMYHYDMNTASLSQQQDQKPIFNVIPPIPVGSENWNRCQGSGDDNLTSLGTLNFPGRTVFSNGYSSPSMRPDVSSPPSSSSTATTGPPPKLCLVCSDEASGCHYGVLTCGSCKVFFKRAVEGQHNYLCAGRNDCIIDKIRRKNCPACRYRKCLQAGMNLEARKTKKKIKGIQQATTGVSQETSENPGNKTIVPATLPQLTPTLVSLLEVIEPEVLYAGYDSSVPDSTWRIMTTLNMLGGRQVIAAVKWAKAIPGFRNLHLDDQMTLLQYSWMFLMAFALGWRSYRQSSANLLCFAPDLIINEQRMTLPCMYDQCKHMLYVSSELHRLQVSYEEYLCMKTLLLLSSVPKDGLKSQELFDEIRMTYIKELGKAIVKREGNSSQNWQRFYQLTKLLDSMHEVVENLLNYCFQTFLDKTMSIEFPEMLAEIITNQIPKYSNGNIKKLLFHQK
Procedure: Human Glucocorticoid Receptor (GR) Assay The assay is based on a commercial kit from Panvera/Invitrogen (Part number P2893). The assay technology is fluorescence polarization. The kit utilises recombinant human GR (Panvera, Part number P2812), a Fluoromone™ labelled tracer (GS Red, Panvera, Part number P2894) and a Stabilizing Peptide 10× (Panvera, Part number P2815). The GR and Stabilizing Peptide reagents are stored at −70° C. while the GS Red is stored at −20° C. Also included in the kit are 1M DTT (Panvera, Part number P2325, stored at −20° C.) and GR Screening buffer 10× (Panvera, Part number P2814, stored at −70° C. initially but once thawed stored at room temperature). Avoid repeated freeze/thaws for all reagents. The GR Screening buffer 10× comprises 100 mM potassium phosphate, 200 mM sodium molybdate, 1 mM EDTA and 20% DMSO. Test compounds (1 μL) and controls (1 μL) in 100% DMSO were added to black polystyrene 384-well plates (Greiner low volume black flat-bottom, part number 784076). 0% control was 100% DMSO and 100% control was 10 μM Dexamethasone. Background solution (8 μL; assay buffer 10×, Stabilizing Peptide, DTT and ice cold MQ water) was added to the background wells. GS Red solution (7 μL; assay buffer 10×, Stabilizing Peptide, DTT, GS Red and ice cold water) was added to all wells except background wells. GR solution (7 μL; assay buffer 10×, Stabilizing Peptide, DTT, GR and ice cold water) was added to all wells. The plate was sealed and incubated in a dark at room temperature for 2 hours. The plate was read in an Analyst plate reader (LJL Biosystems/Molecular Devices Corporation) or other similar plate reader capable of recording fluorescence polarization (excitation wavelength 530 nm, emission wavelength 590 nm and a dichroic mirror at 561 nm).
Compound CCC(=O)O[C@]1(C(=O)SCF)CC[C@H]2[C@@H]3C=C(C)C4=Cc5c(cnn5-c5ccc(F)nc5)C[C@]4(C)[C@H]3[C@@H](O)C[C@@]21C [Example 11, (1R,3aS,3bS,10aR,10bS,11S,12aS)-1-{[(fluoromethyl)sulfanyl]carbonyl}-7-(6-fluoropyridin-3-yl)-11-hydroxy-5,10a,12a-trimethyl-1,2,3,3a,3b,7,10,10a,10b,11,12,12a-dodecahydrocyclopenta[5,6]naphtho [1,2-f]indazol-1-yl propanoate] has a pIC50 of 8.44. In the case of CCC(=O)O[C@]1(C(=O)SCC#N)CC[C@H]2[C@@H]3C=C(C)C4=Cc5c(cnn5-c5ccc(F)nc5)C[C@]4(C)[C@H]3[C@@H](O)C[C@@]21C [Example 2, (1R,3aS,3bS,10aR,10bS,11S,12aS)-1-{[(Cyanomethyl)sulfanyl]carbonyl}-7-(6-fluoropyridin-3-yl)-11-hydroxy-5,10a,12a-trimethyl-1,2,3,3a,3b,7,10,10a,10b,-11,12,12a-dodecahydrocyclopenta[5,6]naphtho[1,2-f]indazol-1-yl propanoate], the pIC50 was 8.68. COCC(=O)O[C@]1(C(=O)SCC#N)CC[C@H]2[C@@H]3C=CC4=Cc5c(cnn5-c5ccc(F)nc5)C[C@]4(C)[C@H]3[C@@H](O)C[C@@]21C [Example 7, (1R,3aS,3bS,10aR,10bS,11S,12aS)-1-{[(cyanomethyl)sulfanyl]carbonyl}-7-(6-fluoropyridin-3-yl)-11-hydroxy-10a,12a-dimethyl-1,2,3,3a,3b,7,10,10a,10b,11,12,12a-dodecahydrocyclopenta[5,6]naphtho [1,2-f]indazol-1-yl methoxyacetate] showed a pIC50 of 9.06. In the case of COCC(=O)O[C@]1(C(=O)SCF)CC[C@H]2[C@@H]3C=CC4=Cc5c(cnn5-c5ccc(F)nc5)C[C@]4(C)[C@H]3[C@@H](O)C[C@@]21C [Example 4, (1R,3aS,3bS,10aR,10bS,11S,12aS)-1-{[(Fluoromethyl)sulfanyl]carbonyl}-7-(6-fluoropyridin-3-yl)-11-hydroxy-10a,12a-dimethyl-1,2,3,3a,3b,7,10,10a,10b,11,12,12a-dodecahydrocyclopenta[5,6]naphtho[1,2-f]indazol-1-yl methoxyacetate], the pIC50 was 9.10. COCC(=O)O[C@]1(C(=O)SCC#N)CC[C@H]2[C@@H]3C=C(C)C4=Cc5c(cnn5-c5ccc(F)nc5)C[C@]4(C)[C@H]3[C@@H](O)C[C@@]21C [Example 1, (1R,3aS,3bS,10aR,10bS,11S,12aS)-1-{[(Cyanomethyl)sulfanyl]carbonyl}-7-(6-fluoropyridin-3-yl)-11-hydroxy-5,10a,12a-trimethyl-1,2,3,3a,3b,7,10,10a,10b,-11,12,12a-dodecahydrocyclopenta[5,6]naphtho[1,2-f]indazol-1-yl methoxyacetate] showed a pIC50 of 8.64.
